Key:
[1] = xn = mol fraction of the nth substance listed; conditions: 101 kPa, Liquid; for viscosity: Capillary tube (Ostwald / Ubbelohde) method; for mass density: Vibrating tube method
[2] = refractive index (Na D-line) (dimensionless); xn = mol fraction of the nth substance listed; conditions: 101 kPa, Liquid, Standard Abbe refractometry

CCOC(=O)C(=O)OCC [diethyl ethanedioate] + CCC(=O)CC
Conditions	mass density, 303.15 K [kg/m3]	mass density, 308.15 K [kg/m3]	mass density, 313.15 K [kg/m3]	refractive index, 303.15 K	refractive index, 308.15 K	refractive index, 313.15 K	viscosity, 303.15 K [mPa·s]	viscosity, 308.15 K [mPa·s]	viscosity, 313.15 K [mPa·s]
[1], x1 = 0.0865	834	829.9	825.8	–	–	–	0.485	0.452	0.44
[1], x1 = 0.1436	852	847.8	843.6	–	–	–	0.527	0.491	0.478
[1], x1 = 0.2448	882.5	878.2	873.8	–	–	–	0.61	0.567	0.551
[1], x1 = 0.3389	909.4	905	900.5	–	–	–	0.701	0.65	0.627
[1], x1 = 0.4495	939.4	934.8	930.1	–	–	–	0.818	0.759	0.726
[1], x1 = 0.5325	960.8	956.1	951.2	–	–	–	0.916	0.848	0.808
[1], x1 = 0.6518	990	985.1	979.9	–	–	–	1.071	0.987	0.936
[1], x1 = 0.7587	1014.7	1009.6	1004.2	–	–	–	1.224	1.121	1.061
[1], x1 = 0.8659	1038.2	1032.9	1027.2	–	–	–	1.395	1.274	1.196
[1], x1 = 0.9438	1054.6	1049.1	1043.3	–	–	–	1.525	1.391	1.295
[2], x1 = 0.0865	–	–	–	1.3901	1.3881	1.3861	–	–	–
[2], x1 = 0.1436	–	–	–	1.3916	1.3897	1.3877	–	–	–
[2], x1 = 0.2448	–	–	–	1.3941	1.3924	1.3906	–	–	–
[2], x1 = 0.3389	–	–	–	1.3962	1.3947	1.393	–	–	–
[2], x1 = 0.4495	–	–	–	1.3984	1.3969	1.3954	–	–	–
[2], x1 = 0.5325	–	–	–	1.3999	1.3983	1.3969	–	–	–
[2], x1 = 0.6518	–	–	–	1.4018	1.4	1.3986	–	–	–
[2], x1 = 0.7587	–	–	–	1.4033	1.4014	1.3998	–	–	–
[2], x1 = 0.8659	–	–	–	1.4047	1.4026	1.4008	–	–	–
[2], x1 = 0.9438	–	–	–	1.4056	1.4034	1.4015	–	–	–

CCOC(=O)C(=O)OCC [diethyl ethanedioate] + O=C1CCCC1
Conditions	mass density, 303.15 K [kg/m3]	mass density, 308.15 K [kg/m3]	mass density, 313.15 K [kg/m3]	refractive index, 303.15 K	refractive index, 308.15 K	refractive index, 313.15 K	viscosity, 303.15 K [mPa·s]	viscosity, 308.15 K [mPa·s]	viscosity, 313.15 K [mPa·s]
[1], x1 = 0.0679	950.9	946.1	941.1	–	–	–	1.045	0.96	0.891
[1], x1 = 0.1501	965	960.1	954.9	–	–	–	1.095	0.999	0.925
[1], x1 = 0.2518	981	976	970.6	–	–	–	1.153	1.048	0.968
[1], x1 = 0.3903	1000.6	995.4	989.9	–	–	–	1.233	1.119	1.031
[1], x1 = 0.4511	1008.5	1003.2	997.7	–	–	–	1.265	1.152	1.058
[1], x1 = 0.5509	1020.7	1015.3	1009.7	–	–	–	1.326	1.207	1.107
[1], x1 = 0.6587	1032.9	1027.4	1021.7	–	–	–	1.394	1.269	1.163
[1], x1 = 0.7587	1043.4	1037.9	1032.1	–	–	–	1.458	1.329	1.219
[1], x1 = 0.8755	1054.9	1049.3	1043.3	–	–	–	1.537	1.401	1.288
[1], x1 = 0.961	1062.7	1057	1051	–	–	–	1.596	1.454	1.342
[2], x1 = 0.0679	–	–	–	1.4299	1.4278	1.4262	–	–	–
[2], x1 = 0.1501	–	–	–	1.4264	1.4244	1.4231	–	–	–
[2], x1 = 0.2518	–	–	–	1.4226	1.4207	1.4198	–	–	–
[2], x1 = 0.3903	–	–	–	1.4182	1.4164	1.4158	–	–	–
[2], x1 = 0.4511	–	–	–	1.4164	1.4147	1.4142	–	–	–
[2], x1 = 0.5509	–	–	–	1.4139	1.4122	1.4116	–	–	–
[2], x1 = 0.6587	–	–	–	1.4115	1.4098	1.4089	–	–	–
[2], x1 = 0.7587	–	–	–	1.4098	1.4079	1.4067	–	–	–
[2], x1 = 0.8755	–	–	–	1.408	1.4059	1.4043	–	–	–
[2], x1 = 0.961	–	–	–	1.4068	1.4045	1.4027	–	–	–

From the NIST ThermoML archive (doi:10.1021/je100715x)
